Measurements taken from article PMC9645260, “Small-molecule inhibitors of P-Rex guanine-nucleotide exchange factors” (Small GTPases, 2022).

Tested on: Rac1 or Rac2
Assay: Basal GTP-loading of Rac in the absence of P-Rex1 (liposome-based assay)
Format: biochemical, human
Details: 10 µM
Text: All small GTPases and GEFs used were human recombinant proteins. EE-Rac1, EE-Rac2, GST-Cdc42 or GST-RhoA were expressed in Sf9 cells by baculoviral transduction and purified using their epitope tag in their post-translationally prenylated form using Triton X-114 phase separation, essentially as previously described. Briefly, frozen pellets from a 1 litre culture of Sf9 cells transduced with high-titre baculovirus expressing the small GTPase were resuspended in ice-cold Sf9-cell lysis buffer 1 (1x PBS, 40 mM HEPES pH 7.5 at RT, 5 mM MgCl2, 10 mM EGTA, 300 µM GDP, 1 mM DTT, 200 µM PMSF, 20 μg/ml each of leupeptin, pepstatin A, aprotinin and antipain) and lysed by sonication. Triton X-114 was added (to 1% final concentration), and samples were ultracentrifuged at 118,000 × g for 50 min at 4°C. The supernatant was warmed at 37°C until cloudy (30–60 seconds) and centrifuged at 1300 × g for 2 min at 37°C. The upper phase containing non-lipid modified GTPase was discarded and replaced with ice-cold Sf9-cell lysis buffer. The warming/centrifugation steps were repeated twice and lipid-modified GTPase resuspended in ice-cold Sf9-cell lysis buffer 1 supplemented with Triton X-100 (1% final concentration), followed by ultracentrifugation at 118,000 × g for 50 min at 4°C. […] Protein concentration and purity was determined by coomassie staining of SDS-PAGE gels. […]

| SMILES | effect on basal GTP-loading of Rac1 or Rac2 in the absence of P-Rex1 |
| --- | --- |
| CC1CCC(C(C)C)c2nn(C(=O)/C=C\c3ccccc3)c(-c3cccc4ccccc34)c21 (centres unmarked) [#10] | neither compound affected |
| COc1ccc(-c2[nH]nc3c2C(c2ccc(-c4ccc(Cl)cc4)o2)C(C#N)=C(N)O3)cc1 (centres unmarked) [PREX-in1, 6-amino-4-[5-(4-chlorophenyl)-2-furyl]-3-(4-methoxyphenyl)-2,4-dihydropyrano[2,3-c]pyrazole-5-carbonitrile] | neither compound affected |
